Data: patent US9556165B2 (priority 2012, dated 2017)
Converted amounts (≈) assume the structure as drawn.

Columns and labels:
Test in all cases: MIC determination, broth microdilution (CLSI)
Assay type in all cases: cell-based
E. coli ATCC25922 = conditions: Escherichia coli, ATCC25922, strain 1
A. baumannii ATCC15308 = conditions: Acinetobacter baumannii, ATCC15308, strain 9
C. freundii K21/3034 = conditions: Citrobacter freundii, K21/3034, strain 4
E. cloacae 34654 = conditions: Enterobacter cloacae, 34654, strain 3
S. aureus 133 = conditions: Staphylococcus aureus, 133, strain 11; read-out: strain 11 MIC
M. catarrhalis ICB489 = conditions: Moraxella catarrhalis, ICB489, strain 12
E. coli J62-TEM-3 = conditions: Escherichia coli, J62TEM3, read-out: strain 18 MIC, strain 18
P. aeruginosa PAO1 = conditions: Pseudomonas aeruginosa, PAO1, strain 6
[1] = system: P. aeruginosa 2297-con (AmpC derepressed); conditions: Pseudomonas aeruginosa, read-out: strain 8 MIC, strain 8
[2] = system: P. aeruginosa 2297 (AmpC wt); conditions: Pseudomonas aeruginosa, strain 7
B. fragilis 6688 = conditions: Bacteroides fragilis, 6688, strain 15; read-out: strain 15 MIC
E. coli J62 = conditions: Escherichia coli, J62, strain 17; read-out: strain 17 MIC
H. influenzae ATCC 49247 = conditions: Haemophilus influenzae, ATCC49247, strain 13; read-out: strain 13 MIC
strain 19 = system: strain 19
M. morganii 126/3048 = conditions: Morganella morganii, 126/3048, strain 5
S. pneumoniae 113 = conditions: Streptococcus pneumoniae, 113, strain 14; read-out: strain 14 MIC
strain 21 = system: strain 21
strain 20 = system: strain 20
K. pneumoniae 60 = conditions: Klebsiella pneumoniae, 60, strain 2

SMILES	MIC (E. coli ATCC25922)	MIC (A. baumannii ATCC15308)	MIC (C. freundii K21/3034)	MIC (E. cloacae 34654)	MIC (S. aureus 133)	MIC (M. catarrhalis ICB489)	MIC (E. coli J62-TEM-3)	MIC (P. aeruginosa PAO1)	MIC [1]	MIC [2]	MIC (B. fragilis 6688)	MIC (E. coli J62)	MIC (H. influenzae ATCC 49247)	MIC (strain 19)	MIC (M. morganii 126/3048)	MIC (S. pneumoniae 113)	MIC (strain 21)	MIC (strain 20)	MIC (K. pneumoniae 60)
C[C@H]1[C@H](NC(=O)/C(=N\OCCOc2ccc(C(=N)N)nc2)c2csc(N)n2)C(=O)N1S(=O)(=O)O [Example 3, (2S,3S)-3-{[(2Z)-2-(2-Amino-1,3-thiazol-4-yl)-2-({2-[(6-carbamimidoylpyridin-3-yl)oxy]ethoxy}imino)acetyl]amino}-2-methyl-4-oxoazetidine-1-sulfonic acid]	0.125 µg/mL (≈ 0.244 µM)	1 µg/mL (≈ 1.95 µM)	≤ 0.063 µg/mL	0.125 µg/mL (≈ 0.244 µM)	≤ 0.063 µg/mL	0.125 µg/mL (≈ 0.244 µM)	16 µg/mL (≈ 31.2 µM)	2 µg/mL (≈ 3.9 µM)	16 µg/mL (≈ 31.2 µM)	4 µg/mL (≈ 7.8 µM)	8 µg/mL (≈ 15.6 µM)	0.25 µg/mL (≈ 0.488 µM)	0.5 µg/mL (≈ 0.976 µM)	0.125 µg/mL (≈ 0.244 µM)	0.125 µg/mL (≈ 0.244 µM)	8 µg/mL (≈ 15.6 µM)	0.25 µg/mL (≈ 0.488 µM)	0.125 µg/mL (≈ 0.244 µM)	≤ 0.063 µg/mL
Cc1cc(OCCO/N=C(\C(=O)N[C@@H]2C(=O)N(S(=O)(=O)O)[C@H]2C)c2csc(N)n2)ccc1C(=N)N [Example 14, (2S,3S)-3-{[(2Z)-2-(2-Amino-1,3-thiazol-4-yl)-2-{[2-(4-carbamimidoyl-3-methylphenoxy)ethoxy]imino}acetyl]amino}-2-methyl-4-oxoazetidine-1-sulfonic acid]	0.5 µg/mL (≈ 0.951 µM)	2 µg/mL (≈ 3.81 µM)	0.25 µg/mL (≈ 0.476 µM)	0.5 µg/mL (≈ 0.951 µM)	≤ 0.063 µg/mL	0.25 µg/mL (≈ 0.476 µM)	32 µg/mL (≈ 60.9 µM)	4 µg/mL (≈ 7.61 µM)	32 µg/mL (≈ 60.9 µM)	8 µg/mL (≈ 15.2 µM)	16 µg/mL (≈ 30.4 µM)	1 µg/mL (≈ 1.9 µM)	0.5 µg/mL (≈ 0.951 µM)	0.5 µg/mL (≈ 0.951 µM)	0.5 µg/mL (≈ 0.951 µM)	8 µg/mL (≈ 15.2 µM)	0.5 µg/mL (≈ 0.951 µM)	0.5 µg/mL (≈ 0.951 µM)	1 µg/mL (≈ 1.9 µM)
C[C@H]1[C@H](NC(=O)/C(=N\OCCOc2cnc(C(=N)N)cn2)c2csc(N)n2)C(=O)N1S(=O)(=O)O [Example 30, (2S,3S)-3-{[(2Z)-2-(2-Amino-1,3-thiazol-4-yl)-2-({2-[(5-carbamimidoylpyrazin-2-yl)oxy]-ethoxy}imino)acetyl]amino}-2-methyl-4-oxoazetidine-1-sulfonic acid]	0.125 µg/mL (≈ 0.243 µM)	1 µg/mL (≈ 1.95 µM)	≤ 0.063 µg/mL	0.25 µg/mL (≈ 0.487 µM)	0.125 µg/mL (≈ 0.243 µM)	0.25 µg/mL (≈ 0.487 µM)	16 µg/mL (≈ 31.2 µM)	4 µg/mL (≈ 7.79 µM)	32 µg/mL (≈ 62.3 µM)	4 µg/mL (≈ 7.79 µM)	8 µg/mL (≈ 15.6 µM)	0.25 µg/mL (≈ 0.487 µM)	0.5 µg/mL (≈ 0.974 µM)	0.25 µg/mL (≈ 0.487 µM)	≤ 0.063 µg/mL	4 µg/mL (≈ 7.79 µM)	0.25 µg/mL (≈ 0.487 µM)	0.25 µg/mL (≈ 0.487 µM)	≤ 0.063 µg/mL
C[C@H]1[C@H](NC(=O)/C(=N\OCCOc2ccc(C(=N)N)nn2)c2csc(N)n2)C(=O)N1S(=O)(=O)O [Example 28, (2S,3S)-3-{[(2Z)-2-(2-Amino-1,3-thiazol-4-yl)-2-({2-[(6-carbamimidoylpyridazin-3-yl)oxy]ethoxy}imino)acetyl]amino}-2-methyl-4-oxoazetidine-1-sulfonic acid]	0.125 µg/mL (≈ 0.243 µM)	0.5 µg/mL (≈ 0.974 µM)	0.125 µg/mL (≈ 0.243 µM)	0.125 µg/mL (≈ 0.243 µM)	0.125 µg/mL (≈ 0.243 µM)	0.25 µg/mL (≈ 0.487 µM)	32 µg/mL (≈ 62.3 µM)	4 µg/mL (≈ 7.79 µM)	32 µg/mL (≈ 62.3 µM)	8 µg/mL (≈ 15.6 µM)	8 µg/mL (≈ 15.6 µM)	0.25 µg/mL (≈ 0.487 µM)	0.5 µg/mL (≈ 0.974 µM)	0.25 µg/mL (≈ 0.487 µM)	0.125 µg/mL (≈ 0.243 µM)	2 µg/mL (≈ 3.89 µM)	0.25 µg/mL (≈ 0.487 µM)	0.25 µg/mL (≈ 0.487 µM)	0.125 µg/mL (≈ 0.243 µM)
C[C@H]1[C@H](NC(=O)/C(=N\OCCOc2ccc(C(=N)N)cn2)c2csc(N)n2)C(=O)N1S(=O)(=O)O [Example 5, (2S,3S)-3-{[(2Z)-2-(2-Amino-1,3-thiazol-4-yl)-2-({2-[(5-carbamimidoylpyridin-2-yl)oxy]-ethoxy}imino)acetyl]amino}-2-methyl-4-oxoazetidine-1-sulfonic acid]	0.25 µg/mL (≈ 0.488 µM)	1 µg/mL (≈ 1.95 µM)	0.25 µg/mL (≈ 0.488 µM)	0.125 µg/mL (≈ 0.244 µM)	0.125 µg/mL (≈ 0.244 µM)	0.25 µg/mL (≈ 0.488 µM)	16 µg/mL (≈ 31.2 µM)	4 µg/mL (≈ 7.8 µM)	32 µg/mL (≈ 62.4 µM)	4 µg/mL (≈ 7.8 µM)	8 µg/mL (≈ 15.6 µM)	0.5 µg/mL (≈ 0.976 µM)	0.5 µg/mL (≈ 0.976 µM)	0.25 µg/mL (≈ 0.488 µM)	0.125 µg/mL (≈ 0.244 µM)	4 µg/mL (≈ 7.8 µM)	0.25 µg/mL (≈ 0.488 µM)	0.25 µg/mL (≈ 0.488 µM)	≤ 0.063 µg/mL
C[C@H]1[C@H](NC(=O)/C(=N\OCCNc2ccc(C(=N)N)cc2)c2csc(N)n2)C(=O)N1S(=O)(=O)O [Example 8, (2S,3S)-3-{[(2Z)-2-(2-Amino-1,3-thiazol-4-yl)-2-({2-[(4-carbamimidoylphenyl)amino]ethoxy}imino)acetyl]amino}-2-methyl-4-oxoazetidine-1-sulfonic acid]	1 µg/mL (≈ 1.96 µM)	4 µg/mL (≈ 7.83 µM)	0.5 µg/mL (≈ 0.979 µM)	2 µg/mL (≈ 3.92 µM)	0.25 µg/mL (≈ 0.49 µM)	0.5 µg/mL (≈ 0.979 µM)		8 µg/mL (≈ 15.7 µM)	32 µg/mL (≈ 62.7 µM)	32 µg/mL (≈ 62.7 µM)	16 µg/mL (≈ 31.3 µM)	4 µg/mL (≈ 7.83 µM)	1 µg/mL (≈ 1.96 µM)	2 µg/mL (≈ 3.92 µM)	0.25 µg/mL (≈ 0.49 µM)	8 µg/mL (≈ 15.7 µM)	4 µg/mL (≈ 7.83 µM)	4 µg/mL (≈ 7.83 µM)	0.5 µg/mL (≈ 0.979 µM)
C[C@H]1[C@H](NC(=O)/C(=N\OCCOc2ccc(C(=N)N)cc2Cl)c2csc(N)n2)C(=O)N1S(=O)(=O)O [Example 20, (2S,3S)-3-{[(2Z)-2-(2-Amino-1,3-thiazol-4-yl)-2-{[2-(4-carbamimidoyl-2-chlorophenoxy)ethoxy]imino}acetyl]amino}-2-methyl-4-oxoazetidine-1-sulfonic acid]	2 µg/mL (≈ 3.66 µM)	2 µg/mL (≈ 3.66 µM)	1 µg/mL (≈ 1.83 µM)	2 µg/mL (≈ 3.66 µM)	0.125 µg/mL (≈ 0.229 µM)	0.5 µg/mL (≈ 0.916 µM)	32 µg/mL (≈ 58.6 µM)	8 µg/mL (≈ 14.7 µM)	32 µg/mL (≈ 58.6 µM)	8 µg/mL (≈ 14.7 µM)	16 µg/mL (≈ 29.3 µM)	2 µg/mL (≈ 3.66 µM)	0.5 µg/mL (≈ 0.916 µM)	2 µg/mL (≈ 3.66 µM)	2 µg/mL (≈ 3.66 µM)	16 µg/mL (≈ 29.3 µM)	1 µg/mL (≈ 1.83 µM)	2 µg/mL (≈ 3.66 µM)	2 µg/mL (≈ 3.66 µM)
